# From patent publication US5783201A, “Method for treating non-ocular epithelial disorders via increasing heme oxygenase levels and/or decreasing levels of arachidonic acid derivatives” (Hemogen, Inc., priority 1997, dated 1998)
# Tested on: heme oxygenase
# Test: microsomal heme oxygenase activity in CCD-860SK skin fibroblast cells
# Format: cell-based, human
# Details: 100 μM; CCD-860 skin fibroblast cells, collected after two hours; mean ± SD; control 294 ± 18
# Description: Cell line CCD-860SK is a human skin fibroblast cell line which is publicly available from the American Type Culture Collection. Cell cultures of this line were propagated in Iscove's modified Dulbecco's medium supplemented with 10% fetal bovine […]. Following propagation, they were grown in 175 cm^2 Falcon tissue culture flasks, using Iscove's modified Dulbecco's medium, supplemented with 10% (v/v) heat inactivated fetal bovine serum, 50 U penicillin/ml, 50 ug streptomycin/ml, and 2 mM glutamine. The cells were then seeded into culture flasks at a concentration of 1×10^5 cells/ml, and incubated at 37° C. in a humidified 5% CO2 /95% air chamber. After three days, old media were removed, and replaced with fresh media. […]
# To measure total enzyme activity, microsomes were prepared as described by Tenhunen et al., J. Biol. Chem. 244: 6388-6394 (1969), incorporated by reference herein. The activity of microsomal heme oxygenase was then determined, using 0.5-1 mg protein in an incubation medium as described by Tenhunen et al., supra. Total protein was then determined using the classic method of Lowry et al., J. Biol. Chem. 193: […] (1951), using bovine serum albumin as standard.
structure (smiles),measurement,value
[Cl][Sn][Cl] [SnCl2],Heme oxygenase,802 ± 49 pmol bilirubin/mg/hr
